Reference: patent publication US10335382B2, “Use of hydrogen sulfide synthesis inhibitors for cancer therapy” (THE BOARD OF REGENTS OF THE UNIVERSITY OF TEXAS SYSTEM, priority 2013, dated 2019)
“Also recorded” adds a separate entry of the source. Each block holds one molecule with its values, some of them ahead of it.

Legend:
[1] = test system: HCT116 colon cancer cell; test: HCT116 colon cancer cell proliferation (xCELLigence); type: cell-based, human; settings: for inhibition at 300 µM / IC50: Homo sapiens, HCT-116; for IC50: read-out: IC50 (μM), inhibition of HCT116 colon cancer cell proliferation
Protocol: Cellular proliferation assays are conducted in HCT116 CRC cells in vitro, using the Roche XCelligence method. Concentration-response curves with the various AOAA analogs are prepared (concentration range: 1, 3, 10, 100, 300 and 600 μM). AOAA is used as the reference control, which, according to preliminary data, has an IC50 of approximately 300 μM. Control proliferation studies in the non-carcinogenic colonic epithelial cell line NCM356 are used to confirm cancer-cell selectivity. Since the NCM356 cells contain low levels of CBS, based on previous studies it is expect that AOAA (and its prodrugs) will only exert modest antiproliferative effects in these cells. Proliferation-inhibitory effects of the AOAA prodrugs in NCM356 cells indicate CBS-independent pharmacological actions. A collection of human colorectal tumor tissue samples (and surrounding non-cancerous tissue) are used to test the conversion of the AOAA prodrugs to AOAA in a number of cancer samples.
(§1) Cellular migration and invasion assays were performed as described (Chao et al. (1996) Cancer Res. 56:4811-19). Briefly, 10^5 cells were suspended in serum-free media containing 0.1% BSA and then added to 6.5 mm Transwell chambers ([…]) uncoated (migration assay) or coated with a thin layer (45 μl) of growth factor reduced matrigel (cell invasion assay). Cells were allowed to migrate toward the bottom chamber containing fibroblast (NIH-3T3 cells) conditioned media at 37° C. for 6 or 24 h for cell migration and invasion, respectively. Migrated and invaded cells were then fixed in Carson's fixative, stained in 0.33% toluidine blue and quantified by visual counting. For the HCT116-EAhy926 co-culture experiment, the cancer cell line was grown to confluence in the bottom wells of the transwell chambers and then endothelial cell migration was assessed (Coletta et al. (2012) Proc Natl Acad Sci USA. 109:9161-66). For assessment of colon cell proliferation, the xCELLigence system (Roche) was used (Szabo and Papapetropoulos (2011) Br J Pharmacol. 164:853-65).
For assessment of cell proliferation, the xCELLigence system (Roche) was used. Briefly, HCT116 cells were cultured until approximately 70% confluence. Cells were then detached by Trypsin-EDTA and resuspended in fresh culture media at a concentration of 30,000 cells/ml. 200 μl of cell suspension was added to each well (6,000 cells/well) of a E-plate 96, a specially designed 96-well microtiter plate containing interdigitated microelectrodes to non-invasively monitor the cell proliferation by measuring the relative change in the electrical impedance of the cell monolayer, a unitless parameter named cell index (CI). Cells were then treated with YD02-51 and proliferation was monitored for 48 hours.

[2] = test system: HCT116 tumor xenografts; test: HCT116 tumor xenograft in nude mice; type: in vivo, Nu/nu Balb/C female mice; settings: 0.1, 0.5 or 1 mg/kg s.c. 6 days/week; harvest Day 28
Protocol: Nu/nu Balb/C female mice (8-10 weeks) were injected subcutaneously in the right and left dorsum (10^6 cells/side with HCT-116 cells). One week later, the mice were randomized and subcutaneous injections of phosphate buffered saline (PBS) or AOAA (9 mg/kg/day) were performed 6 days/week. Tumor diameters were measured transcutaneously using calipers and tumor volumes were calculated using the formula V=(π/6)hd^2. T-test comparisons of the tumor volumes and final weights at harvest were performed. Xenotrials with patient-derived xenografts (PTX) were performed on nu/nu mice implanted subcutaneously with a piece of Passage 2 tumor measuring 2-5 mm^3 each. When a small palpable tumor was evident at 7-10 days, the mice with tumor take were randomized and subjected to subcutaneous injection of vehicle or AOAA (9 mg/kg/day) 6 days/week. Specimens were fixed with 10% formalin and embedded in paraffin. 5 μm sections were stained with hematoxylin and eosin. Each in vivo experiment was repeated at least twice.
Tissue preparation, immunostaining of CD31, and evaluation of microvessel density with the Chakley reticle was performed as described (Chao et al. (1996) Cancer Res. 56:4811-19).
Nu/nu Balb/c female mice (8-10 weeks) were injected subcutaneously in the right and left dorsum (10^6 cells/side with HCT116 cells). One week later, the mice were randomized and subcutaneous injection of phosphate buffered saline (PBS control) or YD2-51 (0.1, 0.5 or 1 mg/kg) was performed 6 days/week. Tumor volumes and final weights at harvest (post-tumor injection Day 28) were performed and tumor weight/animal weight ratios calculated.

[3] = test system: peritumor microvessel blood flow; test: Tumor microvascular blood flow (laser Doppler); type: in vivo, mice; settings: intratumoral injection; AOAA 9 mg/kg, L-cysteine 1 mg/kg
Protocol: FIG. 6. L-Cysteine increases, while AOAA reduces microvessel blood flow in tumor bearing mice. Tumor bearing mice were anesthetized by i.p. injection of ketamine-xylazine and a laser Doppler (PeriFlux system 5000) was placed on top of the tumor for microvessel blood flow measurements. After a stabilization period, L-Cys or AOAA were injected subcutaneously in proximity of the tumor. […] Data represent mean±SEM of n=6 determinations.
Skin microvascular blood flow was measured using a PeriFlux 5000 laser-Doppler flowmeter. Mice bearing PTX were anesthetized by ketamine-xylazine (i.p.). The laser-Doppler probe was placed on top of the tumors and a stable basal signal was recorded. Changes in the subcutaneous microcirculatory perfusion were detected following intratumoral injections of either L-cysteine (1 mg/kg) or AOAA (9 mg/kg).

[4] = test system: mitochondria isolated from HCT116 cells; test: Bioenergetic analysis in isolated mitochondria; type: cell-based, human; settings: L-cysteine 30 nM; mitochondria from control shNT cells
Protocol: Bioenergetic measurements in mitochondria isolated from shNT and shCBS HCT-116 cells were conducted in the absence or presence of L-cysteine (30 nM) (Módis et al. (2013) FASEB J 27:601-11; Wu et al. (2007) Am J Physiol Cell Physiol. 292:C125-36). Basal respiration (State 2) in the presence of succinate and rotenone was measured, followed by State 3 (phosphorylating respiration), in the presence of ADP. State 4o was determined after the addition of oligomycin, and maximal uncoupler-stimulated respiration (State 3u) was assessed in the presence of FCCP.

[5] = test system: HCT116 cells; test: HCT116 cell migration and invasion (Transwell); type: cell-based, human; settings: NaHS 30 μM in lower chamber; serum-free media
Protocol: FIG. 3. […] (A, B) The lentiviral shRNA vectors targeting CBS (shCBS) and CSE (shCSE) were transfected into HCT116 cells. A non-targeting sequence was used as control (shNT). […] Following CBS and CSE silencing, cells were seeded at the density of 3000 cells/well in xCELLigence plates and proliferation was monitored for 36 hours. […] The NCM356 cells were infected overnight with a CBS expressing adenovirus (Ad-CBS, 10 multiplicity of infection (MOI)) or its control, a green fluorescent protein (Ad-GFP). The culture media was then replaced and cells were seeded in XCelligence plates at 3000 cells/well. Cell proliferation was then measured real-time over 36 hours. […] (H, I) The effect of AOAA and NaHS was also tested on HCT116 cell migration (H) and invasion (I). Cells were pretreated either with vehicle or AOAA (1 mM) and seeded in serum-free DMEM (0.1% albumin) in the upper chamber of a trans-well insert uncoated (migration assay) or coated with growth factor reduced matrigel (invasion assay). Migration and invasion were stimulated by fibroblast-conditioned media in the lower chamber for 6 and 24 hours, respectively. […] (J) In a co-culture of human endothelial cells (EAhy926) and colon cancer cells (HCT116), HCT 116 cells were seeded in the lower chamber of a trans-well insert and cultured to confluence. Endothelial cells were then seeded into the upper chamber in serum-free DMEM and allowed to migrate for 4 hours at 37° C. […] Western blots are representative of at least three independent experiments; proliferation/migration/invasion assays and H2S measurements represent mean±SEM of n=3 determinations.
as §1, with “109:9161-66).” for “109:9161-66). For assessment of colon cell proliferation, the xCELLigence system (Roche) was used (Szabo and Papapetropoulos (2011) Br J Pharmacol. 164:853-65).”

Compound: CCC(CC)OC(=O)CON [YD-2-51, pentan-3-yl 2-(aminooxy)acetate]
tumor cell proliferation (cell index) ([1]; HCT116, 6,000 cells/well, monitored 48 hours): potent, concentration-dependent inhibition
tumor growth in tumor-bearing mice [2]: inhibited tumor growth

Compound: N[C@@H](CS)C(=O)O [L-cysteine]
peritumor / skin microvessel blood flow [3]: increased
OCR in state 3 and state 3u respiration [4]: elevates OCR

Compound: [Na+].[SH-] [NaHS, sodium hydrogen sulfide]
HCT116 cell invasion [5]: slightly enhanced
HCT116 cell migration [5]: slightly enhanced

Compound: CC(C)(C)OC(=O)NOCC(=O)O [YD-2-23]
inhibition at 300 µM ([1]; HCT116): 71%
IC50 [1]: 207 µM

Continued, in another order:

IC50 [1]: 159 µM
Compound: NOCC(=O)OCc1ccccc1 [YD-2-22]
inhibition at 300 µM ([1]; HCT116): 91%

IC50 [1]: 181 µM
Compound: COC(=O)CON [YD-1-71, aminooxyacetic acid methyl ester]
antiproliferative effect in HCT116 compared with parent AOAA ([1]; HCT116): markedly enhances the antiproliferative effect; also recorded: substantially lower concentrations
inhibition at 300 µM ([1]; HCT116): 80%
